Test [1] concerns hyperphosphorylation of Paratarg. In words: Inhibition experiments: LCLs cultured with kinase inhibitors, IEF and immunodetection with anti-STOML2. In kind it is cell-based, human. As to conditions: IEF analysis; for effect on hyperphosphorylation of paratarg: LCLs of healthy donors or patients. Here is the method:
LCLs derived from healthy donors or patients were cultured in the presence of the kinase inhibitors at the indicated concentrations. Lysates were analysed by IEF and immunodetected with anti-STOML2. A shown in this figure, hyperphosphorylation is inhibited by staurosporine, ellagic acid and wortmannin. […] Using BIM_I and Rottlerin, PKC isoform delta or zeta could be identified as responsible for hyperphosphorylation. • a) Same as b), but with other concentrations of the inhibitors.
LCLs were established by infection of PBMCs with EBV as described by Neumann et al (Blood 2005; 106:3105-13).
Stably transfected cell lines were cultured in the presence of inhibitory compounds as indicated. After 5 d cells were removed and analysed by IEF and immunodetection.
In MGUS/MM patients and their relatives hyperphosphorylated paratarg is expressed constitutively, while hyperphosphorylation of paratarg is temporary in all healthy persons and cell lines analysed. This was seen by culturing LCLs and cell lines in the presence of kinase or phosphatase inhibitors. The identification of Ser17 as the differential phosphorylation site led to the prediction of a […] (PKC) responsible for hyperphosphorylation. Culturing of LCLs and cell lines in the presence of suitable inhibitors (staurosporine, Wortmannin, Bisindolylmaleimid I) at concentrations as indicated below and followed by IEF analysis identifies the PKCzeta isoform as the active kinase (summarized in FIG. 16). This was verified by using highly specific PKCzeta pseudosubstrate as inhibitor (FIG. 16d). […] (FIG. 18).

The test system of test [2] is paraproteins of serum pool #1 (MGUS/MM patients' sera). In words: Serum profiling on high density protein arrays (paraprotein screening of hEx1 human fetal brain macroarray). In kind it is binding. Also on record: key: Paraprotein-binding quality/strength are ++, + and ±.; Paraprotein-binding quality/strength are ++, + and ±.; Paraprotein-binding quality/strength are ++, + and ±. As to conditions: serum pool #1 (n=114), each serum diluted 1:10^8. The protocol:
Screening analyses were performed on hEx1 high-density protein expression cDNA libraries, created in Hans Lehrach's laboratory at the Max Planck Institute for Molecular Genetics in Berlin (Germany) and obtained from the Reference Center of the German Human Genome Project (RZPD) (Bussow et al, 1998). These high-density filter membranes display proteins that were expressed from a modified pQE protein expression vector (Qiagen). This vector featured a hexahistidine tag, a T5 promoter and two lac operator sequences, which allowed repression during the growth phase by overexpression of the Lac repressor protein, and subsequent induction of protein expression with isopropyl-beta-D-thiogalactopyranoside (IPTG).
High density protein arrays of the protein expression set of the hEx1 library were obtained from the German Resource Center for Genome Research (RZPD) and provided by Dr. Mahlknecht from our department. They consist of 37,200 independent clones derived from a human fetal brain cDNA expression library and were used for autoantibody detection. For serum profiling, the filters were blocked in 10% (w/v) non-fat, dry milk powder in TBST (TBS, 0.1% (v/v) Tween 20) at 4° C. overnight, washed twice in TBST, and incubated for 1 h with serum pool #1 at a dilution of 1:10^8 for each serum. Following three 30-min TBST washes and subsequent incubation with the secondary antibody (goat anti-human IgG biotinylated, Dianova, diluted 1:2.500) and Strep-PDX (1:15.000) in 2% (w/v) Milk/TBST, the filters were washed three times for 30 min in TBST. This was followed by detection using Pharmacia ECL system. Positive signals were localized according to the manufacturer's protocol. Corresponding clones were obtained from RZPD.
In this study we screened a human high-density protein array containing 37,200 independent recombinant proteins derived from a human fetal brain expression library with sera obtained from patients with monoclonal gammopathy of undetermined significance (MGUS) and multiple myeloma (MM).
The signal pattern obtained from the screening with the paraprotein pools at a dilution of 1:10^8 were compared with the patterns obtained from screening with the control sera from clinically healthy donors and to background incubations. […] 5′- and 3′-tag sequencing of these clones was performed, and their sequences were used for BLAST searches against public databases at NCBI.
Using serum pool #1 (paraprotein type: 15 IgA, 88 IgG, 11 oligoclonal, n=114) we identified 14 putative paraprotein targets on the human protein filter array (FIG. 1, Tab. 1). […] Sequence searches and comparisons using the in-frame sequences identified five known proteins and one unknown gene product derived from chromosome 8.

As to `O=c1oc2c(O)c(O)cc3c(=O)oc4c(O)c(O)cc1c4c23` [ellagic acid], the “effect on hyperphosphorylation of paratarg” value in test [1] is “inhibited”.

On to `CN[C@@H]1C[C@H]2O[C@@](C)([C@@H]1OC)n1c3ccccc3c3c4c(c5c6ccccc6n2c5c31)C(=O)NC4` [staurosporine], for which the “effect on hyperphosphorylation of paratarg” value in test [1] is given as “inhibited”. Turning to `CN(C)CCCn1cc(C2=C(c3c[nH]c4ccccc34)C(=O)NC2=O)c2ccccc21` [BIM_I, Bisindolylmaleimid I], the “kinase identified by inhibition of paratarg hyperphosphorylation” value in test [1] (LCLs, BIM_I at 6 μM) was “clearly identified PKCzeta as the kinase responsible”.

B1: MPMGp800J11592: RZPD clone, NM_001294.1 (protein, UniProt O96005 2-669, looked up)
Putative lipid scramblase …: AAAQEADGARSAVVAAGGGSSGQVTSNGSIGRDPPAETQPQNPPAQPAPNAWQVIKGVLFRIFIIWAISSWFRRGPAPQDQAGPGGAPRVASRNLFPKDTLMNLHVYISEHEHFTDFNATSALFWEQHDLVYGDWTSGENSDGCYEHFAELDIPQSVQQNGSIYIHVYFTKSGFHPDPRQKALYRRLATVHMSRMINKYKRRRFQKTKNLLTGETEADPEMIKRAEDYGPVEVISHWHPNITINIVDDHTPWVKGSVPPPLDQYVKFDAVSGDYYPIIYFNDYWNLQKDYYPINESLASLPLRVSFCPLSLWRWQLYAAQSTKSPWNFLGDELYEQSDEEQDSVKVALLETNPYLLALTIIVSIVHSVFEFLAFKNDIQFWNSRQSLEGLSVRSVFFGVFQSFVVLLYILDNETNFVVQVSVFIGVLIDLWKITKVMDVRLDREHRVAGIFPRLSFKDKSTYIESSTKVYDDMAFRYLSWILFPLLGCYAVYSLLYLEHKGWYSWVLSMLYGFLLTFGFITMTPQLFINYKLKSVAHLPWRMLTYKALNTFIDDLFAFVIKMPVMYRIGCLRDDVVFFIYLYQRWIYRVDPTRVNEFGMSGEDPTAAAPVAEVPTAAGALTPTPAPTTTTATREEASTSLPTKPTQGASSASEPQEAPPKPAEDKKKD
For B1, the “Signal-quality (paraprotein-binding quality/strength)” value in test [2] is listed as “±”.

B2: MPMGp800B22602: RZPD clone, NM_006762.1 (protein)
chain: MDPRLSTVRQTCCCFNVRIATTALAIYHVIMSVLLFIEHSVEVAHGKASCKLSQMGYLRIADLISSFLLITMLFIISLSLLIGVVKNREKYLLPFLSLQIMDYLLCLLTLLGSYIELPAYLKLASRSRASSSKFPLMTLQLLDFCLSILTLCSSYMEVPTYLNFKSMNHMNYLPSQEDMPHNQFIKMMIIFSIAFITVLIFKVYMFKCVWRCYRLIKCMNSVEEKRNSKMLQKVVLPSYEEALSLPSKTPEGGPAPPPYSEV
As to B2, the “Signal-quality (paraprotein-binding quality/strength)” value in test [2] was “++”.

Source of the values: patent publication US8679765B2, “Methods and compositions for diagnosis and treatment of malignant and non-malignant gammopathies” (Ludwig Institute for Cancer Research Ltd., priority 2009, dated 2014).
